pEC50, pIC50: −log10 of the molar value.
Tests used:
Ba/F3-TPR-MET cells = target: T1, Ba/F3-TPR-MET cells (Homo sapiens, UniProt P08581); experiment: CellTiter-Glo Cell Viability Assay, Ba/F3-TPR-MET; type: cell-based; conditions: 72 hours
T1 construct: fused on or other part: P12270 (Nucleoprotein TPR)
How it was run: (§1)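 IC50 values come from curve-fitted luminescence. Viable-cell ATP was read by CellTiter-Glo 2.0 after a 72 h, 37 °C incubation of 3000 TPR-MET or D1228N-mutant Ba/F3 cells per well. Compounds were tested as a 9-point, 3-fold series with 0.1% DMSO final.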

MET D1228N = target: T2, MET D1228N (Homo sapiens, UniProt P08581, D1228N); experiment: MET D1228N Mobility Shift Assay; conditions: biochemical assay IC50; 100 μM ATP, 60 minute kinase reaction
T2 construct: purchased Signalchem M52-12IG
How it was run: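 Microfluidic electrophoresis quantified phosphorylated versus unphosphorylated 5-FAM-KKKKEEIYFFF peptide (1.5 μM) after a 60 min reaction with 100 μM ATP. MET D1228N (0.313 nM) in 50 mM HEPES, 10 mM MgCl2, 2 mM DTT was preincubated 30 min; IC50 fitted to conversion inhibition.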

[1] = target: T3, Ba/F3-TPR-MET-D1228N cells (Homo sapiens, UniProt P08581, D1228N, cells depend on it); experiment: CellTiter-Glo Cell Viability Assay, Ba/F3-TPR-MET-D1228N; type: cell-based; conditions: 72 hours
T3 construct: fused on or other part: P12270 (Nucleoprotein TPR)
How it was run: as §1

MET = target: T4, MET (Homo sapiens, UniProt P08581); experiment: MET Mobility Shift Assay; conditions: biochemical assay IC50; 100 μM ATP, 60 minute kinase reaction
T4 construct: purchased Carna Biosciences 08-151
How it was run: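 IC50s come from inhibition of substrate-to-phosphopeptide conversion, read by electrophoretic mobility shift. Reaction: 100 μM ATP, 1.5 μM 5-FAM peptide, 0.625 nM MET, 10 mM MgCl2, 60 min, after a 30 min room-temperature enzyme pre-incubation, quenched with EDTA.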

T1 sequence (P08581 whole entry, change not shown, the tested form may be a part): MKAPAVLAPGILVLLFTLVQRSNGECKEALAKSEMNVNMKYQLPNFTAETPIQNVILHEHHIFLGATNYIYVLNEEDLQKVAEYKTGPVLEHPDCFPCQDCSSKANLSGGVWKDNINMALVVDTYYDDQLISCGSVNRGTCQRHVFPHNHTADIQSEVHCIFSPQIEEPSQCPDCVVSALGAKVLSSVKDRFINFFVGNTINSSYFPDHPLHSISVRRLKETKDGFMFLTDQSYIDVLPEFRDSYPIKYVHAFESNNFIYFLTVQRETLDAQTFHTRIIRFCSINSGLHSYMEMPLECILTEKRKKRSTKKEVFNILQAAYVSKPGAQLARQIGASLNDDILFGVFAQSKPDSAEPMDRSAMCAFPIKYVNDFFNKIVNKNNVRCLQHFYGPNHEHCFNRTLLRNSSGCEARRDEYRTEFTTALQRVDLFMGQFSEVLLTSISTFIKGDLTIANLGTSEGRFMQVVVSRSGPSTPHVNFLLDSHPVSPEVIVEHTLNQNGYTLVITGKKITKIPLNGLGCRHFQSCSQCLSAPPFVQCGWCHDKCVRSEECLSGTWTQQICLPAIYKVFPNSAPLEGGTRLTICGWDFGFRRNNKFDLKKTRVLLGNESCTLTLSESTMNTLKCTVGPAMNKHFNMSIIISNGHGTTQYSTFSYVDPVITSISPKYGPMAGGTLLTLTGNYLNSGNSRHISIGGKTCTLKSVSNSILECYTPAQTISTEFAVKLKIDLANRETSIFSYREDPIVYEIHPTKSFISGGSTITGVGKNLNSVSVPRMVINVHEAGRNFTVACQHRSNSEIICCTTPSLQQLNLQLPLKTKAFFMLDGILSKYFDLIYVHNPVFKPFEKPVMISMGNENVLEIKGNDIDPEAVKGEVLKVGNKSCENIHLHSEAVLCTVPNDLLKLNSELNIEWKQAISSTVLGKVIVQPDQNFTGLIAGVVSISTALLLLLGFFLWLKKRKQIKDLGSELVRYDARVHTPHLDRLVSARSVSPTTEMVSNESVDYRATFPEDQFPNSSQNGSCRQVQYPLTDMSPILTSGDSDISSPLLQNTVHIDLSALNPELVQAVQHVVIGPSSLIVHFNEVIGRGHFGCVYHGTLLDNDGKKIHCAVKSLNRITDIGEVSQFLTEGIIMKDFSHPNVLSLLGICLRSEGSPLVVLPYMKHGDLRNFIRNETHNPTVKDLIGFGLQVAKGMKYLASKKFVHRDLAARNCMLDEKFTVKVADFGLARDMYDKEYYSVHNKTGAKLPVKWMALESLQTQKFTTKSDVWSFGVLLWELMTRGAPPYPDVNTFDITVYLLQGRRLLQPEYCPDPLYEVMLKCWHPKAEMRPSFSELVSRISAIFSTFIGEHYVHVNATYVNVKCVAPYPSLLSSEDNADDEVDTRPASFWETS
T3 sequence (P08581 whole entry D1228N, the tested form may be a part): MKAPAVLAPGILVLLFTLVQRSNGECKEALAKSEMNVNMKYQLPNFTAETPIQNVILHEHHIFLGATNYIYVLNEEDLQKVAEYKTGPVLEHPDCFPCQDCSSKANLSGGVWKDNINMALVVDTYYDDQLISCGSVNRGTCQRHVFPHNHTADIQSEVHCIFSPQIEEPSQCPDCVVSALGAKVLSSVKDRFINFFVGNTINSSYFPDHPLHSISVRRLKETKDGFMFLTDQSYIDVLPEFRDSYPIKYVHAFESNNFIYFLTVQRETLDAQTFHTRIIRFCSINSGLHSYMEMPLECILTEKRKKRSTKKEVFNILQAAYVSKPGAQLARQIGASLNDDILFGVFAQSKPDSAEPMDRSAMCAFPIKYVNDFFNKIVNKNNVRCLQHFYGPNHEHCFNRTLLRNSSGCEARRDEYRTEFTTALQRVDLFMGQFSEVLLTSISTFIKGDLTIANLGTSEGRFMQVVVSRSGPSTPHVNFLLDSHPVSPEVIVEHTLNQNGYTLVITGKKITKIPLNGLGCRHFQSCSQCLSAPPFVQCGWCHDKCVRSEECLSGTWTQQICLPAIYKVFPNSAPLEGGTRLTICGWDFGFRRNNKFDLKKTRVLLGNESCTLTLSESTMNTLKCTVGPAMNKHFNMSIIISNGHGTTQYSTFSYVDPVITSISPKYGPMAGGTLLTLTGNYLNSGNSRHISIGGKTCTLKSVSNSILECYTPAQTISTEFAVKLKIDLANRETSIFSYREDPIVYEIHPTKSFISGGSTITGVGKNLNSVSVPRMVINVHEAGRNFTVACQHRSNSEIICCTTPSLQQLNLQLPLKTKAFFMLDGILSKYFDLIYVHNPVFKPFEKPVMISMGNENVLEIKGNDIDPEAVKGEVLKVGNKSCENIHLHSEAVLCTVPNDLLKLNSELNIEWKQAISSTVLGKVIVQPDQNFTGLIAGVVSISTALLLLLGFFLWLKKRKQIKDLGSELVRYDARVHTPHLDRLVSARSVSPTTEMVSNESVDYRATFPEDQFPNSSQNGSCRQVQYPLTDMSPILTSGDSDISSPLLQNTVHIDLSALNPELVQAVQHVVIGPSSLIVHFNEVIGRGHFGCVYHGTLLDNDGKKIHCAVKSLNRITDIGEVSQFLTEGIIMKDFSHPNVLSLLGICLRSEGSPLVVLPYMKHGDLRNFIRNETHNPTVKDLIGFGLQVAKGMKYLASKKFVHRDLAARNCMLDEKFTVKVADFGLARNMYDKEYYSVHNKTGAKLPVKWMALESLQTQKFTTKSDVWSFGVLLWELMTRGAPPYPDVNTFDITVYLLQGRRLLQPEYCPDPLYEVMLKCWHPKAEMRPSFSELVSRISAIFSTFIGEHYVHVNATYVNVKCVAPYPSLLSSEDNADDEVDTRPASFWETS
T2 sequence (P08581 25-1390 D1228N): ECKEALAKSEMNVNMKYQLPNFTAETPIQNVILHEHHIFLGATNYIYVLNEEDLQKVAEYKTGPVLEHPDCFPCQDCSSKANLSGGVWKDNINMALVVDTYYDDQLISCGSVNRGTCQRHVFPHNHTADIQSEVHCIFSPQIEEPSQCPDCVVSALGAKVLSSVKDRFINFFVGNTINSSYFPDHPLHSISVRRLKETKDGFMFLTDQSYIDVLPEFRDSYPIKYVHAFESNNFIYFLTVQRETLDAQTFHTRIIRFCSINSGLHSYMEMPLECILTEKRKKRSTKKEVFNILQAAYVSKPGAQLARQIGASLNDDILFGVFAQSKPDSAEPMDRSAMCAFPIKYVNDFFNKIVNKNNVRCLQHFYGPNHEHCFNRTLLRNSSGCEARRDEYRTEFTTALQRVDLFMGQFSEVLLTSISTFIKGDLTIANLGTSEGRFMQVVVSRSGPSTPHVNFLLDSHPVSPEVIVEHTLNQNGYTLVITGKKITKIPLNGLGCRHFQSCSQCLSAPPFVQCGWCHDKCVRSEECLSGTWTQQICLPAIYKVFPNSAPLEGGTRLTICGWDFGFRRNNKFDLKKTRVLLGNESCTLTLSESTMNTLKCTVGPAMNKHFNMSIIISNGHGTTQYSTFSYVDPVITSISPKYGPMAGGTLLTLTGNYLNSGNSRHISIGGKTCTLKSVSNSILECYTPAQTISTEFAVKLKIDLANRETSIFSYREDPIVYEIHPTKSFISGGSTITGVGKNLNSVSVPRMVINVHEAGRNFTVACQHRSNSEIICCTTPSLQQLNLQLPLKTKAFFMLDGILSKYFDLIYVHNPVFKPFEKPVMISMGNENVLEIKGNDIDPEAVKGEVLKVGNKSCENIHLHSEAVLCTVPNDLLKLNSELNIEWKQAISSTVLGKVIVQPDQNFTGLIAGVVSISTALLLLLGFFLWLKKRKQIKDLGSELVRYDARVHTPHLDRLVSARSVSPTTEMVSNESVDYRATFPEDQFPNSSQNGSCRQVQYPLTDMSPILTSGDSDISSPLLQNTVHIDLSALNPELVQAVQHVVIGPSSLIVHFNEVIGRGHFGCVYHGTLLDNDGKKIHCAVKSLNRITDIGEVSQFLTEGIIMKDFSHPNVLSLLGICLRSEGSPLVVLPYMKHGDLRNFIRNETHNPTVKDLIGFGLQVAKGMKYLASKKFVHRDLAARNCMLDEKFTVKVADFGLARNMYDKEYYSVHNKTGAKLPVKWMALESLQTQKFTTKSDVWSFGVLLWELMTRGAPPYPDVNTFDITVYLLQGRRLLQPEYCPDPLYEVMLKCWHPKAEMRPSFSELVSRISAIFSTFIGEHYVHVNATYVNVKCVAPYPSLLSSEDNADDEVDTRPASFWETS

CCOc1ccncc1C(=O)Nc1ccc(Oc2ccnc3cc(OCCNC)c(OC)cc23)c(F)c1F [Example 16, N-(2,3-difluoro-4-((6-methoxy-7-(2-(methylamino)ethoxy)quinolin-4-yl)oxy)phenyl)-4-ethoxypyridine-3-carboxamide]
6.00 to 7.00: pEC50 (Ba/F3-TPR-MET cells) | pEC50 [1]
≥ 7.00: pIC50 (MET D1228N) | pIC50 (MET)

CNCCOc1ccc2c(Oc3c(F)cc(NC(=O)c4cnccc4OC4CC4)c(F)c3F)ccnc2c1 [Example 94, 4-cyclopropoxy-N-[2,3,5-trifluoro-4-({7-[2-(methylamino)ethoxy]quinolin-4-yl}oxy)phenyl]pyridine-3-carboxamide]
≥ 7.00: pEC50 (Ba/F3-TPR-MET cells) | pIC50 (MET D1228N) | pEC50 [1] | pIC50 (MET)

C#CCOc1ccncc1C(=O)Nc1cc(F)c(Oc2ccnc3cc(OCCNC)c(OC)cc23)c(F)c1 [Example 73, N-[3,5-difluoro-4-({6-methoxy-7-[2-(methylamino)ethoxy]quinolin-4-yl}oxy)phenyl]-4-(prop-2-yn-1-yloxy)pyridine-3-carboxamide]
≥ 7.00: pEC50 (Ba/F3-TPR-MET cells) | pIC50 (MET D1228N) | pEC50 [1] | pIC50 (MET)

Reference: patent US11753395B2 (Kinnate Biopharma Inc., priority 2021, dated 2023)
